Reference: patent US20230286970A1, “NOVEL OXADIAZOLE-BASED SELECTIVE HDAC6 INHIBITORS” (ITALFARMACO S.P.A., priority 2020, published 2023)

What was measured:
recombinant human HDAC6 = recombinant human HDAC6 (Homo sapiens (Human), UniProt Q9UBN7); experiment: Enzymatic screening, HDAC6 inhibition (fluorogenic FdL_G substrate); assay type: biochemical
In short: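 Enzyme was preincubated with compound (8 doses, triplicate, 1% DMSO) in 25 mM Tris-HCl pH 8, 130 mM NaCl, 0.05% Tween-20, 10% glycerol, with BSA. A FLUOR DE LYS-Green substrate was then added, and fluorescence was read after developer plus 2 μM TSA.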

recombinant human HDAC1 = recombinant human HDAC1 (Homo sapiens (Human), UniProt Q13547); experiment: Enzymatic screening, HDAC1 inhibition (fluorogenic FdL_G substrate); assay type: biochemical
In short: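 Recombinant human HDAC1 inhibition was measured fluorometrically using the FLUOR DE LYS-Green (FdL_G) substrate. Compounds at 8 doses (1% DMSO final) in Tris-HCl pH 8 buffer with NaCl, Tween-20 and glycerol were preincubated in triplicate with enzyme and 1 mg/mL BSA, then given substrate. Developer I plus 2 μM TSA was added, and fluorescence read after 25 minutes in the dark.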

Chain of recombinant human HDAC1 (Q13547 whole entry): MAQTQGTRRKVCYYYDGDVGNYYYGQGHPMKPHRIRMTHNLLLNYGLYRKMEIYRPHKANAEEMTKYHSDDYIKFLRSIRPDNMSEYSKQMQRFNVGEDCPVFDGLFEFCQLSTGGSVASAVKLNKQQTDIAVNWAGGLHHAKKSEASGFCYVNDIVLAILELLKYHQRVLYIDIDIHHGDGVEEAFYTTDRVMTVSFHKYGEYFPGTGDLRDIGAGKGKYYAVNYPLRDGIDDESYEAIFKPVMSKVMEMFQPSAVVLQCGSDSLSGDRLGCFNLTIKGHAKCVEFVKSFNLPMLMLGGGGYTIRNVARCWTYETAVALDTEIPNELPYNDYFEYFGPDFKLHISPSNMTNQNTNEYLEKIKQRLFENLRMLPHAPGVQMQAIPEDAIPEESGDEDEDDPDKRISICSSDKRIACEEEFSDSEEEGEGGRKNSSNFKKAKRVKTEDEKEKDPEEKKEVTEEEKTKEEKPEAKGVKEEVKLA
Chain of recombinant human HDAC6 (Q9UBN7 whole entry): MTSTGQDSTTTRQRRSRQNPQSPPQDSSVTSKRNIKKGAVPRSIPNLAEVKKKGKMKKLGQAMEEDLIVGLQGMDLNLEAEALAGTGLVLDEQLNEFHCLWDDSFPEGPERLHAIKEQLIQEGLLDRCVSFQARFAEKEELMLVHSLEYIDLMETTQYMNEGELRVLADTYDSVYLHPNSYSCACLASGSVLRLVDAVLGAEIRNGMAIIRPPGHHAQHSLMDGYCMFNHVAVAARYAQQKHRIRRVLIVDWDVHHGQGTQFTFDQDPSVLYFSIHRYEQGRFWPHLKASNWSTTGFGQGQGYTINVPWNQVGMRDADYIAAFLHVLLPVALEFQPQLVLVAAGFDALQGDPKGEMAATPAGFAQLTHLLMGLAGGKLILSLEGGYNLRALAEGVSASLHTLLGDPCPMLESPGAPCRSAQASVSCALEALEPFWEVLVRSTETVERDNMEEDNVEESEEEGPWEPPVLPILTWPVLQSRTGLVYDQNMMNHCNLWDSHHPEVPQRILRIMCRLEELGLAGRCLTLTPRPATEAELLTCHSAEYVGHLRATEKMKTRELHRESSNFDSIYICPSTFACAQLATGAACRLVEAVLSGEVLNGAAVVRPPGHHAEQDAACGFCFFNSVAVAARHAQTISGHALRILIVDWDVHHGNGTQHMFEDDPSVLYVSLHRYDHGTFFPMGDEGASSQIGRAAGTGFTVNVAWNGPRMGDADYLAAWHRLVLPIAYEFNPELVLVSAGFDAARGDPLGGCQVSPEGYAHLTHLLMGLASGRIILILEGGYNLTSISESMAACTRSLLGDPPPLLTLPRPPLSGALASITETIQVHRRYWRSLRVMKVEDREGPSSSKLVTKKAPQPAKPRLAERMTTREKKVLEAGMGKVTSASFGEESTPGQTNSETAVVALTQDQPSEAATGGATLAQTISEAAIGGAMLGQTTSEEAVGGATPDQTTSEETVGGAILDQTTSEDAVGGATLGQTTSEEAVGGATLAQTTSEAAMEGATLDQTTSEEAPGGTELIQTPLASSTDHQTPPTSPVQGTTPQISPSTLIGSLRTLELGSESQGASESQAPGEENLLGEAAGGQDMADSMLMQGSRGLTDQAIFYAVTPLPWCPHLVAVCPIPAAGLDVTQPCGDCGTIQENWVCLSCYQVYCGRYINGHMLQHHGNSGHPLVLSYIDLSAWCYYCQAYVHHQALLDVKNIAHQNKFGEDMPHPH

| SMILES | IC50 (recombinant human HDAC6) [µM] | IC50 (recombinant human HDAC1) [µM] |
| --- | --- | --- |
| Cn1c(N)nc2cc(-c3nnn(Cc4cc(F)c(-c5nnc(C(F)F)o5)cc4F)n3)ccc21 [compound 372, 5-[2-[[4-[5-(difluoromethyl)-1,3,4-oxadiazol-2-yl]-2,5-difluorophenyl]methyl]tetrazol-5-yl]-1-methylbenzimidazol-2-amine] | 0.019 | > 1000 |
| Cn1c(N)nc2cc(-c3nnn(Cc4ccc(-c5nnc(C(F)F)o5)c(F)c4)n3)ccc21 [compound 373, 5-[2-[[4-[5-(difluoromethyl)-1,3,4-oxadiazol-2-yl]-3-fluorophenyl]methyl]tetrazol-5-yl]-1-methylbenzimidazol-2-amine] | 0.026 | > 1000 |
| Cn1c(N)nc2cc(-c3nnn(Cc4ccc(-c5nnc(C(F)F)o5)cc4Cl)n3)ccc21 [compound 374, 5-[2-[[2-chloro-4-[5-(difluoromethyl)-1,3,4-oxadiazol-2-yl]phenyl]methyl]tetrazol-5-yl]-1-methylbenzimidazol-2-amine] | 0.101 | > 1000 |
| Nc1ccc(-c2noc(Cc3ccc(-c4nnc(C(F)F)o4)cc3)n2)cc1 [compound 375, 4-[5-[[4-[5-(difluoromethyl)-1,3,4-oxadiazol-2-yl]phenyl]methyl]-1,2,4-oxadiazol-3-yl]aniline] | 0.088 | > 1000 |
| [2H]C([2H])(c1ccc(-c2nnc(C(F)F)o2)cn1)n1cc(-c2ccc3nc(N)sc3c2)nn1 [compound 376, 6-[1-[dideuterio-[5-[5-(difluoromethyl)-1,3,4-oxadiazol-2-yl]pyridin-2-yl]methyl]triazol-4-yl]-1,3-benzothiazol-2-amine] | 0.009 | > 1000 |
| Cn1c(N)nc2cc(-c3cn(Cc4ccc(-c5nnc(C(F)F)o5)cc4F)nn3)ccc21 [compound 378, 5-[1-[[4-[5-(difluoromethyl)-1,3,4-oxadiazol-2-yl]-2-fluorophenyl]methyl]triazol-4-yl]-1-methylbenzimidazol-2-amine] | 0.017 | 199 |
| FC(F)c1nnc(-c2ccc(Cc3nc(-c4ccc(NC5=NCCN5)cc4)no3)cc2)o1 [compound 379, N-[4-[5-[[4-[5-(difluoromethyl)-1,3,4-oxadiazol-2-yl]phenyl]methyl]-1,2,4-oxadiazol-3-yl]phenyl]-4,5-dihydro-1H-imidazol-2-amine] | 0.017 | > 1000 |
| FCc1nnc(-c2ccc(Cc3nc(-c4ccc(NC5=NCCN5)cc4)no3)cc2)o1 [compound 380] | 0.019 | > 1000 |
| [2H]C([2H])(c1cc(F)c(-c2nnc(C(F)F)o2)cc1F)n1cc(-c2ccc(N)nc2)nn1 [compound 381, 5-[1-[dideuterio-[4-[5-(difluoromethyl)-1,3,4-oxadiazol-2-yl]-2,5-difluorophenyl]methyl]triazol-4-yl]pyridin-2-amine] | 0.028 | > 1000 |
| [2H]C([2H])(c1ccc(-c2nnc(C(F)F)o2)cc1F)n1cc(-c2ccc3nc(N)sc3c2)nn1 [compound 382, 6-[1-[dideuterio-[4-[5-(difluoromethyl)-1,3,4-oxadiazol-2-yl]-2-fluorophenyl]methyl]triazol-4-yl]-1,3-benzothiazol-2-amine] | 0.018 | > 1000 |
| Fc1cc(Cc2nc(-c3ccc(NC4=NCCN4)cc3)no2)ccc1-c1nnc(C(F)F)o1 [compound 383, N-(4-(5-(4-(5-(difluoromethyl)-1,3,4-oxadiazol-2-yl)-3-fluorobenzyl)-1,2,4-oxadiazol-3-yl)phenyl)-4,5-dihydro-1H-imidazol-2-amine] | 0.013 | > 1000 |
| [2H]C([2H])(c1ccc(-c2nnc(C(F)F)o2)c(F)c1F)n1cc(-c2ccc(N)nc2)nn1 [compound 385, 5-[1-[dideuterio-[4-[5-(difluoromethyl)-1,3,4-oxadiazol-2-yl]-2,3-difluorophenyl]methyl]triazol-4-yl]pyridin-2-amine] | 0.03 | 1000 |
| Nc1ncnc2sc(-c3cn(Cc4c(F)cc(-c5nnc(C(F)F)o5)cc4F)nn3)cc12 [compound 386, 6-(1-(4-(5-(difluoromethyl)-1,3,4-oxadiazol-2-yl)-2,6-difluorobenzyl)-1H-1,2,3-triazol-4-yl)thieno[2,3-d]pyrimidin-4-amine] | 0.04 | 1000 |
| Nc1ncnc2cc(-c3cn(Cc4ccc(-c5nnc(C(F)F)o5)cc4F)nn3)ccc12 [compound 387, 7-[1-({4-[5-(difluoromethyl)-1,3,4-oxadiazol-2-yl]-2-fluorophenyl}methyl)-1H-1,2,3-triazol-4-yl]quinazolin-4-amine] | 0.012 | 1000 |
| CNc1ccc2cc(-c3nnn(Cc4c(F)cc(-c5nnc(C(F)F)o5)cc4F)n3)ccc2n1 [compound 388, 6-(2-(4-(5-(difluoromethyl)-1,3,4-oxadiazol-2-yl)-2,6-difluorobenzyl)-2H-tetrazol-5-yl)-N-methylquinolin-2-amine] | 0.125 | 1000 |
| CNc1ncc2cc(-c3cn(Cc4ccc(-c5nnc(C(F)F)o5)c(F)c4F)nn3)ccc2n1 [compound 389, 6-[1-({4-[5-(difluoromethyl)-1,3,4-oxadiazol-2-yl]-2,3-difluorophenyl}methyl)-1H-1,2,3-triazol-4-yl]-N-methylquinazolin-2-amine] | 0.192 | 1000 |
| CNc1ncc2cc(-c3cn(Cc4ccc(-c5nnc(C(F)F)o5)cc4F)nn3)ccc2n1 [compound 390, 6-[1-({4-[5-(difluoromethyl)-1,3,4-oxadiazol-2-yl]-2-fluorophenyl}methyl)-1H-1,2,3-triazol-4-yl]-N-methylquinazolin-2-amine] | 0.116 | 1000 |
| CNc1ncc2cc(-c3cn(Cc4cc(F)c(-c5nnc(C(F)F)o5)cc4F)nn3)ccc2n1 [compound 391, 6-[1-({4-[5-(difluoromethyl)-1,3,4-oxadiazol-2-yl]-2,5-difluorophenyl}methyl)-1H-1,2,3-triazol-4-yl]-N-methylquinazolin-2-amine] | 0.217 | 1000 |
| CNc1ncc2cc(-c3cn(Cc4c(F)cc(-c5nnc(C(F)F)o5)cc4F)nn3)ccc2n1 [compound 392, 6-[1-({4-[5-(difluoromethyl)-1,3,4-oxadiazol-2-yl]-2,6-difluorophenyl}methyl)-1H-1,2,3-triazol-4-yl]-N-methylquinazolin-2-amine] | 0.102 | 1000 |
| CNc1ncc2cc(-c3cn(Cc4ccc(-c5nnc(C(F)F)o5)c(F)c4)nn3)ccc2n1 [compound 393, 6-[1-({4-[5-(difluoromethyl)-1,3,4-oxadiazol-2-yl]-3-fluorophenyl}methyl)-1H-1,2,3-triazol-4-yl]-N-methylquinazolin-2-amine] | 0.497 | 1000 |
| CCNc1ncc2cc(-c3cn(Cc4cc(F)c(-c5nnc(C(F)F)o5)cc4F)nn3)ccc2n1 [compound 394, 6-[1-({4-[5-(difluoromethyl)-1,3,4-oxadiazol-2-yl]-2,5-difluorophenyl}methyl)-1H-1,2,3-triazol-4-yl]-N-ethylquinazolin-2-amine] | 0.264 | 1000 |
| CCNc1ncc2cc(-c3cn(Cc4ccc(-c5nnc(C(F)F)o5)c(F)c4)nn3)ccc2n1 [compound 395, 6-(1-(4-(5-(difluoromethyl)-1,3,4-oxadiazol-2-yl)-3-fluorobenzyl)-1H-1,2,3-triazol-4-yl)-N-ethylquinazolin-2-amine] | 0.857 | 1000 |
| Nc1nccc2cc(-c3nnn(Cc4cc(F)c(-c5nnc(C(F)F)o5)cc4F)n3)ccc12 [compound 396, 6-[2-[[4-[5-(difluoromethyl)-1,3,4-oxadiazol-2-yl]-2,5-difluorophenyl]methyl]tetrazol-5-yl]isoquinolin-1-amine] | 0.06 | 1000 |
| Nc1nccc2cc(-c3nnn(Cc4ccc(-c5nnc(C(F)F)o5)cc4F)n3)ccc12 [compound 397, 6-[2-[[4-[5-(difluoromethyl)-1,3,4-oxadiazol-2-yl]-2-fluorophenyl]methyl]tetrazol-5-yl]isoquinolin-1-amine] | 0.057 | 1000 |
| CNc1ccc2cc(-c3nnn(Cc4ccc(-c5nnc(C(F)F)o5)cc4F)n3)ccc2n1 [compound 401, 6-[2-[[4-[5-(difluoromethyl)-1,3,4-oxadiazol-2-yl]-2-fluorophenyl]methyl]tetrazol-5-yl]-N-methylquinolin-2-amine] | 0.144 | 1000 |
| CNc1ccc2cc(-c3nnn(Cc4ccc(-c5nnc(C(F)F)o5)c(F)c4)n3)ccc2n1 [compound 403, 6-[2-[[4-[5-(difluoromethyl)-1,3,4-oxadiazol-2-yl]-3-fluorophenyl]methyl]tetrazol-5-yl]-N-methylquinolin-2-amine] | 0.117 | 1000 |
| Nc1cc2cc(-c3cn(Cc4ccc(-c5nnc(C(F)F)o5)cc4Cl)nn3)ccc2cn1 [compound 404, 6-(1-(2-chloro-4-(5-(difluoromethyl)-1,3,4-oxadiazol-2-yl)benzyl)-1H-1,2,3-triazol-4-yl)isoquinolin-3-amine] | 0.178 | 1000 |
| Nc1cc2cc(-c3cn(Cc4ccc(-c5nnc(C(F)F)o5)cc4F)nn3)ccc2cn1 [compound 405, 6-[1-({4-[5-(difluoromethyl)-1,3,4-oxadiazol-2-yl]-2-fluorophenyl}methyl)-1H-1,2,3-triazol-4-yl]isoquinolin-3-amine] | 0.059 | 1000 |
| Nc1cc2cc(-c3cn(Cc4cc(F)c(-c5nnc(C(F)F)o5)cc4F)nn3)ccc2cn1 [compound 406, 6-[1-({4-[5-(difluoromethyl)-1,3,4-oxadiazol-2-yl]-2,5-difluorophenyl}methyl)-1H-1,2,3-triazol-4-yl]isoquinolin-3-amine] | 0.085 | 1000 |
